Laboratory results taken from ChEMBL document CHEMBL2169824, “The many faces of the adamantyl group in drug design” (Eur J Med Chem, 2011).
pIC50, pKd, pKi: −log10 of the molar value. Values after ≈ are worked out from the molar mass of the structure shown.

Tests used:
Mus musculus = test: Anticonvulsant activity in mouse at 30 mg/kg; assay type: functional
[1] = Inhibition of globotriaosyl ceramide binding to Escherichia coli Verotoxin 1
Vitamin D3 receptor = molecular target: T1, Vitamin D3 receptor (Homo sapiens, UniProt P11473); test: Transactivation of VDR expressed in COS7 cells assessed as reduction in 1,25-dihydroxyvitamin D3-induced transcriptional activity by transient transcription assay; assay type: cell-based, COS-7
T1 sequence (P11473 whole entry): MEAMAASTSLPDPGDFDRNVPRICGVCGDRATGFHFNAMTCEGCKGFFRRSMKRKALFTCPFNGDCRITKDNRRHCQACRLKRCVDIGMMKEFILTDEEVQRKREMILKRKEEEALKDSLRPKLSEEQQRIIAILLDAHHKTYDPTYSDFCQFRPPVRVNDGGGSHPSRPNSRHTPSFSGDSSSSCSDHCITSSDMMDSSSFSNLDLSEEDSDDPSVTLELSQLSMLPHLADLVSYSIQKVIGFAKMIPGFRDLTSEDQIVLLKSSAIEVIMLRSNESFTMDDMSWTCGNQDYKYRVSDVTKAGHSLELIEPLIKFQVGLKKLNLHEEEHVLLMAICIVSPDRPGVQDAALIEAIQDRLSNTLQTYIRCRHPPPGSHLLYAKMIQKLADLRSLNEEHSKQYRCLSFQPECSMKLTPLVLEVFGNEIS

HCT-116 = test: Antitumor activity against human HCT116 cells xenografted in athymic mouse assessed as reduction tumor size at 20 mg/kg, qd; assay type: functional; set-up: scale not given: the % may be the effect or the level left
[2] = molecular target: Delta-type opioid receptor (Homo sapiens, UniProt P41143); test: Antagonist activity at DOR; assay type: functional
Mu-type opioid receptor = Mu-type opioid receptor (Homo sapiens, UniProt P35372); test: Antagonist activity at MOR; assay type: functional
Staphylococcus aureus = test: Antimicrobial activity against methicillin-resistant Staphylococcus aureus; assay type: functional
Enterococcus faecium = test: Antimicrobial activity against vancomycin-resistant Enterococcus faecium; assay type: functional
[3] = Solubility in water; assay type: physicochemical
Carbonic anhydrase 2 = Carbonic anhydrase 2 (Homo sapiens, UniProt P00918); test: Inhibition of human CA2
[4] = Inhibition of Beta-glucocerebrosidase G202R mutant in cell based assay
[5] = system: T2, Lysosomal acid glucosylceramidase (Homo sapiens), P04062 [N409S]; test: Inhibition of Beta-glucocerebrosidase N370S mutant in cell based assay
T2 sequence (whole entry): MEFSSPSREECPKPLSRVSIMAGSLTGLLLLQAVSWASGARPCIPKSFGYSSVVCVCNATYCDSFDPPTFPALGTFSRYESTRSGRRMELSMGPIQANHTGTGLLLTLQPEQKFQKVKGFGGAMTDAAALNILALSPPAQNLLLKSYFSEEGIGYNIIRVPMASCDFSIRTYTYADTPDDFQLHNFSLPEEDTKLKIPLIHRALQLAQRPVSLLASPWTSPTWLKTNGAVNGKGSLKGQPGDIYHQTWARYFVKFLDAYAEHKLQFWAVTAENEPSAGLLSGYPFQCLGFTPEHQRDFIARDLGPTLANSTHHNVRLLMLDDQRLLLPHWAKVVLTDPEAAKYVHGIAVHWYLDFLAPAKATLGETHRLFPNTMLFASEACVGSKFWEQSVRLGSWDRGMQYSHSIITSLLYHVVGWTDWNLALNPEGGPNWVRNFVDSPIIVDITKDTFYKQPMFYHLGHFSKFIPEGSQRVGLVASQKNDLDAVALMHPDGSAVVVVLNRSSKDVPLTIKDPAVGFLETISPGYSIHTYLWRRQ

[6] = Half life in plasma; assay type: ADME, cell-free
[7] = Drug elimination in po dosed human assessed as unchanged compound level; assay type: ADME, organism-based; conditions: in vivo, read-out: Drug excretion
[8] = Ratio of drug level in liver to blood in human; assay type: ADME, tissue-based
[9] = Drug excretion in human urine assessed as unchanged compound level; assay type: ADME; conditions: read-out: Drug excretion
[10] = Protein binding in plasma; assay type: ADME, cell-free; conditions: read-out: PPB (converted)
[11] = Half life in human plasma; assay type: ADME, cell-free
[12] = Displacement of [125I]neurotensin from neurotensin receptor 1 in guinea pig brain; set-up: species or system Cavia porcellus
[13] = molecular target: T3, Mediator of RNA polymerase II transcription subunit 23 (Homo sapiens, UniProt Q9ULK4); test: Binding affinity to Sur2
T3 sequence (Q9ULK4 whole entry): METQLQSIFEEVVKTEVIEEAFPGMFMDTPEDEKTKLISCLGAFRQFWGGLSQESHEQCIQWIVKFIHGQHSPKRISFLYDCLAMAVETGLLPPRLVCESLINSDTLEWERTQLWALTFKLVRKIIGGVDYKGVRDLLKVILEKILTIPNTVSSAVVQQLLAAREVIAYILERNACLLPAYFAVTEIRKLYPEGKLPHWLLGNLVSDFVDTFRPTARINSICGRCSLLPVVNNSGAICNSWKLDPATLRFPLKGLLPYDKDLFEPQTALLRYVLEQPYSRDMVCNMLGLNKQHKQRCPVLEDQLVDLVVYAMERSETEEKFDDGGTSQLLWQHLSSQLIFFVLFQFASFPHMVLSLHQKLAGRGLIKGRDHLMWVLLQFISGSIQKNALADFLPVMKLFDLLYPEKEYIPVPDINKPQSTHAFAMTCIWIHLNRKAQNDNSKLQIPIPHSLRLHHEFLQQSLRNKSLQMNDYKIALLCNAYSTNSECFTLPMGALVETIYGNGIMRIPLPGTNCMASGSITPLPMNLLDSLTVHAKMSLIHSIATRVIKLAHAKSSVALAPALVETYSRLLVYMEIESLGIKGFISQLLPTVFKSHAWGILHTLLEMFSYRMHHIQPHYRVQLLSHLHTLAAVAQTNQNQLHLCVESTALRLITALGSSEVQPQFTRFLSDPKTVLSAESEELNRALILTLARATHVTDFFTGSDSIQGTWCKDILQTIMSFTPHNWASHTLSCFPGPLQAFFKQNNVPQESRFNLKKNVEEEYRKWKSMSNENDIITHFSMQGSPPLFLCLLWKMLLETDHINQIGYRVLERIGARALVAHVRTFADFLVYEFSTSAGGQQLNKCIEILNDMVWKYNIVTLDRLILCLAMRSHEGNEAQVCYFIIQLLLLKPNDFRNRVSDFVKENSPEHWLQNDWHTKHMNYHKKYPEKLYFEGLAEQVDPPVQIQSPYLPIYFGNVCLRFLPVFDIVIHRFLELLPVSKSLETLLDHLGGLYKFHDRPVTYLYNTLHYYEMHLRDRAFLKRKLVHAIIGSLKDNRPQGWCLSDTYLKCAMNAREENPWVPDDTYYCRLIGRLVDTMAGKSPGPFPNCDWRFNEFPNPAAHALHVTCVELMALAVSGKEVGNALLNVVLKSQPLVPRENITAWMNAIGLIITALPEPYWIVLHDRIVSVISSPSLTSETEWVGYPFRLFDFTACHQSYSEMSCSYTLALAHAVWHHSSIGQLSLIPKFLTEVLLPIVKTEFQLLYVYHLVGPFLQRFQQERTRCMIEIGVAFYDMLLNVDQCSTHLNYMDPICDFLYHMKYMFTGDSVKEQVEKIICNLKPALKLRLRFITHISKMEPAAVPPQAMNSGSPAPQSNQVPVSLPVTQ

[14] = system: Mycobacterium tuberculosis; test: Antimicrobial activity against Mycobacterium tuberculosis H37Rv; assay type: functional
[15] = Volume of distribution in mouse; assay type: ADME, organism-based; conditions: in vivo

Sequence of Delta-type opioid receptor (P41143 whole entry): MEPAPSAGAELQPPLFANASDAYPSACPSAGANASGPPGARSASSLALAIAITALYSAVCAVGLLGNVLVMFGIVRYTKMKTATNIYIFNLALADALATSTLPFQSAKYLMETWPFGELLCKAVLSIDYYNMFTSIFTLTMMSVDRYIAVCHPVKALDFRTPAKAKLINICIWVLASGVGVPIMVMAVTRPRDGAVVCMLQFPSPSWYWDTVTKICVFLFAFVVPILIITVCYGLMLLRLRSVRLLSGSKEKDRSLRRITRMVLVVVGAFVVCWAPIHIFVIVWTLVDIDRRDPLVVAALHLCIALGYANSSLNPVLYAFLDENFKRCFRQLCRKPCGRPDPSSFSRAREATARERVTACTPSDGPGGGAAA
Sequence of Mu-type opioid receptor (P35372 whole entry): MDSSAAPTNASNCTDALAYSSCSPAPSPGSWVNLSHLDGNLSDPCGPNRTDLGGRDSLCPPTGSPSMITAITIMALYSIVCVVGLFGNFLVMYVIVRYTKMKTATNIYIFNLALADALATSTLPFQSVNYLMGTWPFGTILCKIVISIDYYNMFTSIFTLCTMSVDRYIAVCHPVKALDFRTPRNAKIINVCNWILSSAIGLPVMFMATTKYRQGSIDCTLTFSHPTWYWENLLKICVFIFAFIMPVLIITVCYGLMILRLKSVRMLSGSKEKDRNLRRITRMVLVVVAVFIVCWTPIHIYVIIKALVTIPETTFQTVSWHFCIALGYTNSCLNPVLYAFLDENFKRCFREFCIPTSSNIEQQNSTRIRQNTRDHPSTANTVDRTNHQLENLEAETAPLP

## NS(=O)(=O)c1nnc(NC(=O)CC23CC4CC(CC(C4)C2)C3)s1
Mus musculus
  Activity: 75%

## CCCCCCCCCCCCC/C=C/C(O)C(CO[C@@H]1O[C@H](CO)[C@@H](O[C@@H]2O[C@H](CO)[C@H](O[C@H]3O[C@H](CO)[C@H](O)[C@H](O)[C@H]3O)[C@H](O)[C@H]2O)[C@H](O)[C@H]1O)NC(=O)CC12CC3CC(CC(C3)C1)C2 (stereo partly drawn)
[1]
  pIC50: 5.00

## C=C1[C@H](O)CC(=C/C=C2\CCC[C@]3(C)[C@@H]([C@H](C)/C=C/C[C@H](O)CC45CC6CC(CC(C6)C4)C5)CC[C@@H]23)C[C@H]1O
Vitamin D3 receptor
  pIC50: 8.52

## COC(=O)c1ccc(O)c(NC(=O)COc2ccc(C34CC5CC(CC(C5)C3)C4)cc2)c1
HCT-116
  Activity: 53%

## Cc1cc(O)cc(C)c1C[C@H](N)C(=O)N1Cc2ccccc2C[C@H]1C(=O)NC12C[C@H]3C[C@@H](C1)C[C@@H](C2)C3
[2]
  pKi: 8.91
Mu-type opioid receptor
  pKi: 7.07

## C[C@@]1(CCC(=O)Nc2c(O)ccc(C(=O)O)c2O)C(=O)C=CC23CC4CC(CC(C4)C21)C3 (stereo partly drawn)
Staphylococcus aureus
  MIC: 1.3 µg/mL (≈ 2.96 µM)
Enterococcus faecium
  MIC: 1.3 µg/mL (≈ 2.96 µM)

## O=C(O)CCCCCCCCCCCNC(=O)NC12CC3CC(CC(C3)C1)C2
[3]
  solubility: 19 µg/mL (≈ 48.4 µM)

## NS(=O)(=O)c1nnc(NC(=O)OC23CC4CC(CC(C4)C2)C3)s1
Mus musculus
  Activity: 92%
Carbonic anhydrase 2
  pKi: 8.00

## O=C(CCCCCN1C[C@H](O)[C@@H](O)[C@H](O)[C@H]1CO)NC12CC3CC(CC(C3)C1)C2
[4]
  INH: > 1 µM
[5]
  INH: > 1 µM

## CC12C[C@@]34C=CC(=O)[C@@](C)(CCC(=O)Nc5c(O)ccc(C(=O)O)c5O)C3[C@H](CC1C4)O2 (stereo partly drawn) [PLATENSIMYCIN]
Staphylococcus aureus
  MIC: 0.2 µg/mL (≈ 0.453 µM)
Enterococcus faecium
  MIC: 0.2 µg/mL (≈ 0.453 µM)

## CC(=O)N(O)CCCCCNC(=O)CCC(=O)N(O)CCCCCNC(=O)CCC(=O)N(O)CCCCCN [DEFEROXAMINE]
[6]
  half-life: 5 min

## CN(C)CCOCC(=O)NC12CC3CC(CC(C3)C1)C2 [TROMANTADINE]
[7]
  dose excreted: 30%
[8]
  Kp: 19

## NC12CC3CC(CC(C3)C1)C2 [AMANTADINE]
[9]
  dose excreted: 65%

## N#C[C@@H]1C[C@@H]2C[C@@H]2N1C(=O)[C@@H](N)C12CC3CC(CC(O)(C3)C1)C2 [SAXAGLIPTIN ANHYDROUS]
[10]
  fraction unbound: 0.7

## NS(=O)(=O)c1nnc(NC(=O)NC23CC4CC(CC(C4)C2)C3)s1
Mus musculus
  Activity: 47%
Carbonic anhydrase 2
  pKi: 7.89

## CC(N)C12CC3CC(CC(C3)C1)C2 (stereo not drawn) [RIMANTADINE]
[11]
  half-life: 1440 min

## COc1cccc(OC)c1-c1cc(C(=O)NC2(C(=O)O)C3CC4CC(C3)CC2C4)nn1-c1ccnc2cc(Cl)ccc12 (stereo not drawn) [REMINERTANT]
[12]
  pIC50: 9.00

## Cc1ccc(S(=O)(=O)n2ccc3c(OCC(O)CN(CCCCCN)C(=O)N4CCC(C5CCN(C(=O)C67CC8CC(CC(C8)C6)C7)CC5)CC4)cccc32)cc1 (stereo not drawn) [WRENCHNOLOL]
[13]
  pKd: 5.74

## CC(C)NCC(O)COc1ccc(CC(=O)OCCC23CC4CC(CC(C4)C2)C3)cc1 (stereo not drawn) [ADAPROLOL]
[6]
  half-life: 6.9 min

## CC(C)=CCC/C(C)=C/CNCCNC1C2CC3CC(C2)CC1C3 (stereo not drawn) [SQ109]
[14]
  MIC: 1.56 µM (≈ 0.516 µg/mL)
[15]
  Vd: 11.8 L/kg
